The values below come from patent US20050197350A1, “Novel quinoline, tetrahydroquinazoline, and pyrimidine derivatives and methods of treatment related to the use thereof” (TAISHO PHARMACEUTICAL CO., LTD., priority 2003, published 2005).

The test system of the first test is MCH receptors. Description: MCH receptor activity class (method not given).
Conditions: not given
Take `Cc1cc(N[C@H]2CC[C@@H](NC(=O)c3cccc(Cl)c3)CC2)nc2ccccc12` [Example 2547, 3-chloro-N-{cis-4-[(4-methylquinolin-2-yl)amino]cyclohexyl}benzamide]: the class was 1.

Still in this test, the particulars now being: MCH receptor activity class 1-3 (percent of control at 10^-7 M or IC50).
As to `CN(C)c1ccnc(N[C@H]2CC[C@@H](CNC(=O)Nc3ccc(F)c(F)c3)CC2)n1` [compound 2448], the class is listed as 1 (Class 1: The value of percent of control at 10^−7 M was less than 40% or the value of IC50 was less than 50 nM.). Same read-out and setting: next, `CN(C)c1ccnc(N[C@H]2CC[C@@H](NC(=S)Nc3ccccc3-c3ccccc3)CC2)n1` [compound 2335]: 3 (Class 3 The value of percent of control at 10^−7 M was more than 60% or the value of IC50 was more than 200 nM.); `CCOC(=O)c1cccc(NC(=S)N[C@H]2CC[C@@H](Nc3cc(N(C)C)c4ccccc4n3)CC2)c1` [compound 2293]: 3 (Class 3 The value of percent of control at 10^−7 M was more than 60% or the value of IC50 was more than 200 nM.). For the compound `CCc1cccc(C)c1NC(=O)NC[C@H]1CC[C@@H](Nc2cc(N(C)C)c3ccccc3n2)CC1` [compound 2362, N-[(cis-4-{[4-(dimethylamino)quinolin-2-yl]amino}cyclohexyl)methyl]-N′-(2-ethyl-6-methylphenyl)urea], the class was 2 (Class 2: The value of percent of control at 10^−7 M was from 40% to 60% or the value of IC′50 was from 50 nM to 200 nM.).

Staying with this test, now noted: MCH receptor; class by percent of control at 10^-7 M or IC50.
For `CCOc1ccccc1C(=O)N[C@H]1CC[C@@H](Nc2cc(N(C)C)c3ccccc3n2)CC1` [compound 72], the class is 3 (Class 3 The value of percent of control at 10^−7 M was more than 60% or the value of IC50 was more than 200 nM.). The same measure, in the same setting: the figure for `COc1ccc([N+](=O)[O-])cc1NC(=S)N[C@H]1CC[C@@H](Nc2nc3c(c(N(C)C)n2)CCCC3)CC1` [compound 2039] is 3 (Class 3 The value of percent of control at 10^−7 M was more than 60% or the value of IC50 was more than 200 nM.).

The same test, now with this note: activity class 1-3: percent of control at 10^-7 M or IC50.
For `CCOC(=O)NC[C@H]1CC[C@@H](Nc2nccc(N(C)C)n2)CC1` [compound 1647], the class was 3 (Class 3 The value of percent of control at 10^−7 M was more than 60% or the value of IC50 was more than 200 nM.). Take `CN(C)c1ccnc(N[C@H]2CC[C@@H](CNCCc3ccc(C(C)(C)C)cc3)CC2)n1` [compound 1529]: the class is recorded as 3 (Class 3 The value of percent of control at 10^−7 M was more than 60% or the value of IC50 was more than 200 nM.).

The test is the same for the next values; noted with them: activity class per percent of control at 10^-7 M or IC50.
As for `CSc1sc(C(=O)N[C@H]2CC[C@@H](Nc3nc4c(c(N(C)C)n3)CCCC4)CC2)c(Cl)c1S(=O)(=O)C(C)C` [compound 1041], the class was 3 (Class 3 The value of percent of control at 10^−7 M was more than 60% or the value of IC50 was more than 200 nM.).

Staying with this test, now noted: class 1-3 by percent of control at 10^-7 M or IC50.
`COc1ccc(CC(=O)NC[C@H]2CC[C@@H](Nc3nccc(N(C)C)n3)CC2)cc1` [compound 414, N-[(cis-4-{[4-(dimethylamino)pyrimidin-2-yl]amino}cyclohexyl)methyl]-2-(4-methoxyphenyl)acetamide]: the class is 2 (Class 2: The value of percent of control at 10^−7 M was from 40% to 60% or the value of IC′50 was from 50 nM to 200 nM.). Take `CN(C)c1ccnc(N[C@H]2CC[C@@H](CNC(=O)c3ccccc3Br)CC2)n1` [compound 438]: the class was 3 (Class 3 The value of percent of control at 10^−7 M was more than 60% or the value of IC50 was more than 200 nM.).

The test is the same for the next values; noted with them: class by percent of control at 10^-7 M or IC50.
For “N4,N4-dimethyl-N2-(cis-4-{[(2,4,5-trimethoxybenzyl)amino]-methyl}cyclohexyl)-5,6,7,8-tetrahydroquinazoline-2,4-diamine [compound 1416]”, the class is given as 1 (Class 1: The value of percent of control at 10^−7 M was less than 40% or the value of IC50 was less than 50 nM.). The same measure, in the same setting: the figure for `CN(C)c1nc(N[C@H]2CC[C@@H](NCc3c[nH]c4ccc(Br)cc34)CC2)nc2c1CCCC2` [compound 1334] is 3 (Class 3 The value of percent of control at 10^−7 M was more than 60% or the value of IC50 was more than 200 nM.).

`CN(C)c1cc(N[C@H]2CC[C@@H](CNCc3cccc(C#N)c3)CC2)nc2ccccc12` [compound 1163]: the class is 3 (Class 3 The value of percent of control at 10^−7 M was more than 60% or the value of IC50 was more than 200 nM.).

Turning to `CN(C)c1nc(N[C@H]2CC[C@@H](CNC(=O)C3C[C@H]3c3ccccc3)CC2)nc2c1CCCC2` (some centres unmarked) [compound 608], the class is given as 3 (Class 3 The value of percent of control at 10^−7 M was more than 60% or the value of IC50 was more than 200 nM.). Same read-out and setting: the figure for `CN(C)c1ccnc(N[C@H]2CC[C@@H](NC(=O)c3scc(S(C)(=O)=O)c3Cl)CC2)n1` [compound 903] is 3 (Class 3 The value of percent of control at 10^−7 M was more than 60% or the value of IC50 was more than 200 nM.); for `CN(C)c1ccnc(N[C@H]2CC[C@@H](NC(=O)c3csc([N+](=O)[O-])c3)CC2)n1` [compound 906, N-(cis-4-{[4-(dimethylamino)pyrimidin-2-yl]amino}cyclohexyl)-5-nitrothiophene-3-carboxamide] it is 1 (Class 1: The value of percent of control at 10^−7 M was less than 40% or the value of IC50 was less than 50 nM.). `CN(C)c1cc(N[C@H]2CC[C@@H](NC(=S)Nc3ccc(Br)cc3Cl)CC2)nc2ccccc12` [compound 2271]: the class is recorded as 3 (Class 3 The value of percent of control at 10^−7 M was more than 60% or the value of IC50 was more than 200 nM.).

Consider `COc1ccc2[nH]cc(CNC[C@H]3CC[C@@H](Nc4nc5c(c(N(C)C)n4)CCCC5)CC3)c2c1` [compound 1369], for which the class is recorded as 1 (Class 1: The value of percent of control at 10^−7 M was less than 40% or the value of IC50 was less than 50 nM.).

As to `Cc1cc(Cl)cc(Cl)c1NC(=S)N[C@H]1CC[C@@H](Nc2nc3c(c(N(C)C)n2)CCCC3)CC1` [compound 1781, N-(2,4-dichloro-6-methylphenyl)-N′-(cis-4-{[4-(dimethylamino)-5,6,7,8-tetrahydroquinazolin-2-yl]amino}cyclohexyl)thiourea], the class is reported as 1 (Class 1: The value of percent of control at 10^−7 M was less than 40% or the value of IC50 was less than 50 nM.). Still for that read-out and setting: the figure for `CN(C)c1ccnc(N[C@H]2CC[C@@H](CNCc3cccc(Cl)c3)CC2)n1` [compound 1269] is 3 (Class 3 The value of percent of control at 10^−7 M was more than 60% or the value of IC50 was more than 200 nM.); for `CCCSc1ncccc1C(=O)N[C@H]1CC[C@@H](Nc2nccc(N(C)C)n2)CC1` [compound 302] it is 3 (Class 3 The value of percent of control at 10^−7 M was more than 60% or the value of IC50 was more than 200 nM.).

For the compound `Cc1ccc([N+](=O)[O-])cc1NC(=O)N[C@H]1CC[C@@H](Nc2nccc(N(C)C)n2)CC1` [compound 2235], the class was 3 (Class 3 The value of percent of control at 10^−7 M was more than 60% or the value of IC50 was more than 200 nM.). Regarding `CN(C)c1ccnc(N[C@H]2CC[C@@H](NC(=O)CCC(=O)c3ccc(F)cc3)CC2)n1` [compound 846], the class was 3 (Class 3 The value of percent of control at 10^−7 M was more than 60% or the value of IC50 was more than 200 nM.).

`CN(C)c1nc(N[C@H]2CC[C@@H](NC(=S)Nc3ccc(-c4cnco4)cc3)CC2)nc2c1CCCC2` [compound 2086]: the class is reported as 3 (Class 3 The value of percent of control at 10^−7 M was more than 60% or the value of IC50 was more than 200 nM.). As for `CN(C)c1nc(N[C@H]2CC[C@@H](CNC(=O)/C=C/c3ccccc3Cl)CC2)nc2c1CCCC2` [compound 669], the class is 3 (Class 3 The value of percent of control at 10^−7 M was more than 60% or the value of IC50 was more than 200 nM.).

`Cc1ccccc1CNC(=O)N[C@H]1CC[C@@H](Nc2nccc(N(C)C)n2)CC1` [compound 2236]: the class is reported as 3 (Class 3 The value of percent of control at 10^−7 M was more than 60% or the value of IC50 was more than 200 nM.). On to `CN(C)c1nc(N[C@H]2CC[C@@H](NC(=O)c3ccc(-c4ccc(Cl)cc4[N+](=O)[O-])o3)CC2)nc2c1CCCC2` [compound 952, 5-(4-chloro-2-nitrophenyl)-N-(cis-4-{[4-(dimethylamino)-5,6,7,8-tetrahydroquinazolin-2-yl]amino}cyclohexyl)-2-furamide], for which the class is listed as 1 (Class 1: The value of percent of control at 10^−7 M was less than 40% or the value of IC50 was less than 50 nM.). For the compound `CCOC(=O)c1[nH]c2cc(Cl)cc(Cl)c2c1CN[C@H]1CC[C@@H](Nc2nc3c(c(N(C)C)n2)CCCC3)CC1` [compound 1357], the class is 1 (Class 1: The value of percent of control at 10^−7 M was less than 40% or the value of IC50 was less than 50 nM.). With `Cc1cccc(NC(=O)N[C@H]2CC[C@@H](Nc3cc(N(C)C)c4ccccc4n3)CC2)c1C` [compound 2126], the class was 3 (Class 3 The value of percent of control at 10^−7 M was more than 60% or the value of IC50 was more than 200 nM.). As for `CN(C)c1nc(N[C@H]2CC[C@@H](NC(=O)Nc3ccc(C(F)(F)F)cc3)CC2)nc2c1CCCC2` [compound 1878], the class is 3 (Class 3 The value of percent of control at 10^−7 M was more than 60% or the value of IC50 was more than 200 nM.).

The same test, now with this note: class by percent of control at 10^−7 M or IC50.
As for `Cc1cc(N(C)C)nc(N[C@H]2CC[C@@H](NC(=O)c3cccc(F)c3)CC2)n1` [compound 2953, N-(cis-4-{[4-(dimethylamino)-6-methylpyrimidin-2-yl]amino}cyclohexyl)-3-fluorobenzamide], the class was 2 (Class 2: The value of percent of control at 10^−7 M was from 40% to 60% or the value of IC′50 was from 50 nM to 200 nM.). In the case of `CCCCc1ccc(C(=O)N[C@H]2CC[C@@H](Nc3nc(C)cc(N(C)C)n3)CC2)cc1` [compound 2952], the class was 3 (Class 3 The value of percent of control at 10^−7 M was more than 60% or the value of IC50 was more than 200 nM.).

Regarding `Cc1cnc(NC[C@H]2CC[C@@H](NC(=O)c3ccc(Cl)c(Cl)c3)CC2)nc1N(C)C` [compound 2729, 3,4-dichloro-N-[cis-4-({[4-(dimethylamino)-5-methylpyrimidin-2-yl]amino}methyl)cyclohexyl]benzamide], the class is given as 3 (Class 3 The value of percent of control at 10^−7 M was more than 60% or the value of IC50 was more than 200 nM.).
